Measurements taken from patent US20060073189A1, “Chewing gums, lozenges, candies, tablets, liquids, and sprays for efficient delivery of medications and dietary supplements” (priority 2000, published 2006).

Test: pKa and ionisation of active ingredients
Format: physicochemical
Conditions: at a pH of 8.3

Question: For `CN(C)CCOC(c1ccccc1)c1ccccc1` [diphenhydramine], which ionized is on record?
Answer: The ionized was 50%.
